According to patent publication US20260184708A1, “PYRIDAZINONES AND METHODS OF USE THEREOF” (GFB (ABC), LLC, priority 2017, published 2026):
Read-outs that look alike come from different tables or passages of the source.

Biological target: T1, TRPC5 (Homo sapiens, UniProt Q9UL62)
T1 construct: expressed in transfected cells; host or cells: HEK 293
T1 sequence (Q9UL62 1-973): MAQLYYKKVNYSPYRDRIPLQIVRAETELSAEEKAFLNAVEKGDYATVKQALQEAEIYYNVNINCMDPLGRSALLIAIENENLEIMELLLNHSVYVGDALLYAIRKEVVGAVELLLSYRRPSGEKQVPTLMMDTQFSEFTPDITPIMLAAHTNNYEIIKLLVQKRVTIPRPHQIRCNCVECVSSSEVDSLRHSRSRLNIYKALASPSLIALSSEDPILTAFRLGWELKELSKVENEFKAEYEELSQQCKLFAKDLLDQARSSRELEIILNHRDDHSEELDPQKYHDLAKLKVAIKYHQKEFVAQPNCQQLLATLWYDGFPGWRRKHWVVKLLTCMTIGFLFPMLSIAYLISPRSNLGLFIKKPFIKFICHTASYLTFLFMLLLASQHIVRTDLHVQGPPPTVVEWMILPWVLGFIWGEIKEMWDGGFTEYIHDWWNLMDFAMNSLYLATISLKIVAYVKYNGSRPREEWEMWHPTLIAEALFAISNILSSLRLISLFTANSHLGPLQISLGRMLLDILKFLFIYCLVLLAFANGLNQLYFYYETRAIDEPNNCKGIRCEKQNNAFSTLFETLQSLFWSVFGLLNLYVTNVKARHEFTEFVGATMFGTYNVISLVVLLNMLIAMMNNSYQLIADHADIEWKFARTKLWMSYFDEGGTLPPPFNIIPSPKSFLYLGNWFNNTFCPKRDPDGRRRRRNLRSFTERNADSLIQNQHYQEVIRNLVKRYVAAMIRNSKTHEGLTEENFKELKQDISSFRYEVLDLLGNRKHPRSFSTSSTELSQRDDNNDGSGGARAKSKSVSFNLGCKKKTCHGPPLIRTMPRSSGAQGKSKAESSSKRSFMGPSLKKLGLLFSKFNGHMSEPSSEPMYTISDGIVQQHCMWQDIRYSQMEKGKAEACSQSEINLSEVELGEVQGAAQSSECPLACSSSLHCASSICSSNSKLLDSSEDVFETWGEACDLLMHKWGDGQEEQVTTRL
Experiment: TRPC5 automated patch clamp assay (Qpatch), current block after rosiglitazone stimulation
Type: cell-based
Settings: HEK293 cells overexpressing TRPC5, rosiglitazone stimulation
Procedure: HEK 293 cells expressing human TRPC5 were harvested, re-suspended in serum free medium, and added to the automated platform and used within 2-3 hours. Internal and external physiological solutions were freshly prepared prior to the assay. The external solution contained: 145 mM NaCl, 4 mM KCl, 2 mM CaCl2), 1 mM MgCl2, 10 mM HEPES, 10 mM glucose, pH 7.4 with NaOH and 300 mOsm/L. The internal solution contained 120 mM L-aspartic acid, 120 mM CsOH·H2O, 20 mM CsCl, 2 mM MgCl2, 8.8 mM CaCl2), 10 mM EGTA, 10 mM HEPES, 10 mM Glucose, 0.1 mM GTP and 2 mM Na2ATP; pH 7.2 with CsOH and 290 mOsm/L. The free internal Ca2+ concentration was buffered to 1 μM.
The automated electrophysiological platform QPatch 16 from Sophion (Denmark) was used to carry out the compounds profiling. The series resistance and quality of seals were continuously monitored during the experiments. Data was analyzed using Sophion QPatch assay software 5.6 (Odense). IC50 values were calculated using a least squares regression algorithm (Hill equation).
To monitor the ion currents, a voltage ramp from −100 mV to +100 mV, over 300 ms, was applied every 10 seconds, from a holding potential of −60 mV.
After recording for a minimum of 60 seconds control period, Rosiglitazone (30 uM), was applied to activate the channel.

[1] = Table 4, 80 mV, read-out: TRPC5_QP_ XC50_80
[2] = Table 4, 100 mV, read-out: TRPC5_QP_ XC50_100
[3] = Table 5, 80 mV, read-out: TRPC5_QP_ XC50_80
[4] = Table 5, 100 mV, read-out: TRPC5_QP_ XC50_100

IC50 [1]	IC50 [2]	IC50 [3]	IC50 [4]	Structure (SMILES)
5 to 10 µM	5 to 10 µM			O=c1[nH]ncc(Cl)c1N1CCN(Cc2ccccc2OC(F)(F)F)CC1
5 to 10 µM	5 to 10 µM			Cc1cccnc1CN1CCN(c2cn[nH]c(=O)c2Cl)CC1
10 to 500 µM	10 to 500 µM			Cn1ncc2c(CN3CCN(c4cn[nH]c(=O)c4Cl)CC3)cccc21
5 to 10 µM	5 to 10 µM			Cc1ccncc1CN1CCN(c2cn[nH]c(=O)c2Cl)CC1
10 to 500 µM	10 to 500 µM			O=c1[nH]ncc(N2CCN(Cc3cccc4[nH]ncc34)CC2)c1Cl
10 to 500 µM	10 to 500 µM			O=c1[nH]ncc(N2CCN(Cc3cccc4cn[nH]c34)CC2)c1Cl
1e-05 to 1 µM	1e-05 to 1 µM			O=C1CN(c2cn[nH]c(=O)c2Cl)CCN1Cc1cccc2ccccc12
		1 to 5 µM	1 to 5 µM	Cc1ccccc1N1CCN(c2cn[nH]c(=O)c2Cl)CC1
		5 to 10 µM	10 to 500 µM	Cn1nc(CN2CCN(c3cn[nH]c(=O)c3Cl)CC2)c2ccccc21
		1 to 5 µM	1 to 5 µM	O=c1[nH]ncc(N2CCN(Cc3ccc(F)cc3C(F)(F)F)CC2)c1Cl
		10 to 500 µM	10 to 500 µM	CCn1nc(CN2CCN(c3cn[nH]c(=O)c3Cl)CC2)c2ccccc21

Continued, compound first:

Structure (SMILES)	IC50 [1]	IC50 [2]	IC50 [3]	IC50 [4]
O=C1CN(c2cn[nH]c(=O)c2Cl)CCN1Cc1cccc(-c2ccccc2)c1	10 to 500 µM	10 to 500 µM		
O=C1CN(c2cn[nH]c(=O)c2Cl)CCN1Cc1ccc(Oc2ccccc2)cc1	10 to 500 µM	10 to 500 µM		
O=C1CN(c2cn[nH]c(=O)c2Cl)CCN1Cc1cccc(Oc2ccccc2)c1	1 to 5 µM	1 to 5 µM		
O=C1CN(c2cn[nH]c(=O)c2Cl)CCN1Cc1ccccc1Oc1ccccc1	5 to 10 µM	5 to 10 µM		
CCCc1c(N2CCN(Cc3ccccc3C)C(=O)C2)cn[nH]c1=O	10 to 500 µM	10 to 500 µM		
C=C(C)c1c(N2CCN(Cc3ccccc3C)C(=O)C2)cn[nH]c1=O	10 to 500 µM	10 to 500 µM		
O=c1[nH]ncc(N2CCOC(Cc3ccccc3)C2)c1Cl (stereo not shown)	10 to 500 µM	10 to 500 µM		
O=c1[nH]ncc(N2CCOC(c3ccccc3)C2)c1Cl (stereo not shown)	10 to 500 µM	10 to 500 µM		
CC(C)=Cc1c(N2CCN(Cc3ccccc3C)C(=O)C2)cn[nH]c1=O	10 to 500 µM	10 to 500 µM		
O=C1CN(c2cn[nH]c(=O)c2Cl)CCN1Cc1ccccc1-c1ccccc1	1 to 5 µM	1 to 5 µM		
Cc1ccccc1C(C)N1CCN(c2cn[nH]c(=O)c2Cl)CC1=O (stereo not shown)	1e-05 to 1 µM	1e-05 to 1 µM		
Cc1ccccc1CN1CCN(c2cn[nH]c(=O)c2CC(C)C)CC1=O	10 to 500 µM	10 to 500 µM		
C=Cc1n[nH]c(=O)c(N2CCN(Cc3ccc(F)cc3C)CC2)c1Cl			10 to 500 µM	10 to 500 µM
Cc1cc(N2CCN(Cc3ccc(F)cc3C)C(=O)C2)c(=O)[nH]n1			10 to 500 µM	10 to 500 µM
Cc1cc(F)ccc1CN1CCN(c2c(Cl)c(-c3ccccc3)n[nH]c2=O)CC1			10 to 500 µM	10 to 500 µM
Cc1cc(F)ccc1CN1CCN(c2c(Cl)c(Br)n[nH]c2=O)CC1			10 to 500 µM	10 to 500 µM
Cc1n[nH]c(=O)c(N2CCN(Cc3ccc(F)cc3C(F)(F)F)C(=O)C2)c1Cl			10 to 500 µM	10 to 500 µM
Cc1n[nH]c(=O)c(N2CCN(Cc3ccccc3C(F)(F)F)C(=O)C2)c1Cl			5 to 10 µM	5 to 10 µM
Cc1n[nH]c(=O)c(N2CCN(Cc3ccccc3OC(F)(F)F)C(=O)C2)c1Cl			5 to 10 µM	5 to 10 µM
COc1cc(C(F)(F)F)ccc1CN1CCN(c2cn[nH]c(=O)c2Cl)CC1=O			1 to 5 µM	5 to 10 µM
O=C1CN(c2cn[nH]c(=O)c2Cl)CCN1Cc1ccc(OC(F)(F)F)cc1			1 to 5 µM	1 to 5 µM
